From US10344034B2, “Pyrazolopyrimidone or Pyrrolotriazone derivatives, method of preparing same, and pharmaceutical applications thereof” (Shanghai Hengrui Pharmaceutical Co., Ltd., priority 2013, dated 2019)
Like-named read-outs stand apart in the source and are kept apart here.

Columns and labels:
[1] = target: rabbit GnRHr (Oryctolagus cuniculus, UniProt Q5U7L3); assay: Rabbit GnRHr inhibitory activity assay, rabbit GnRHr/CHO stably transfected cell lines; assay type: cell-based; conditions: rabbit GnRHr/CHO cells, GnRH polypeptide stimulant, Fluo-4
Experimental: Test Example 3. Rabbit GnRHr Inhibitory Activity Assay of the Present Compounds
This assay was used to determine the inhibition effect of the present compounds on the activity of rabbit GnRHr protein expressed by rabbit GnRHr/CHO stably transfected cell lines.
A mammalian expression vector containing the rabbit GnRHr gene was transferred into CHO cells by adding Lipofectamine® LTX reagent containing Plus™. Antibiotics were added the next day for screening to pick out the monoclonal cell lines.
The rabbit GnRHr/CHO stably transfected cell lines were inoculated in 96-well plates with an inoculation density of 25,000 cells/well. The culture medium was removed the next day, and loading buffer containing Fluo-4 dye was added to the plate (100 μL/well) and incubated for 30 minutes at 37° C. The plate was moved to room temperature and equilibrated for 10 minutes. Each compound was diluted with DMSO to seven concentration gradients of 100 μM, 10 μM, 1 μM, 0.1 μM, 0.01 μM, 0.001 μM, 0.0001 μM. Then, 1 μl of each gradient was added to each well and incubated for 10 minutes at room temperature. After automated addition of 50 μL of GnRH polypeptide stimulant solution, the value was immediately detected at 494/516n M by a microplate reader (flexstation 3). IC50 values of the compounds were calculated by software from different fluorescence signals at various corresponding concentrations.
The inhibitory activity of the present compounds on rabbit GnRHr was determined by the above assay, and IC50 values are shown in Table 1.

[2] = Rat pharmacokinetics assay; assay type: in vivo, Sprague-Dawley (SD) rats; conditions: for AUC: read-out: Area under curve AUC; for half-life: read-out: Half-life T1/2 (converted); for MRT: read-out: Residence time MRT
Experimental: Test Example 4. Rat pharmacokinetics assay of the compounds of Example 2, Example 3, Example 5, Example 9, Example 10, Example 11, and Example 13 of the present invention.
Sprague-Dawley (SD) rats were used as test animals. The plasma concentrations at various times were determined by LC/MS/MS after intragastric administration of compounds of Example 2, Example 3, Example 5, Example 9, Example 10, Example 11, and Example 13, and intravenous administration of the compound of Example 11 to the rats. The pharmacokinetic behavior of the present compounds in rats was studied, and the pharmacokinetic features were evaluated.
Thirty-two (32) healthy adult SD rats (half female and half male) were evenly designated into 8 groups (4 for each group). The animals were purchased from Shanghai Super B&K Laboratory Animal Corp. Ltd (laboratory animal production Certificate No. SCXK (HU)2008-0016).
An appropriate amount of sample was weighed, and added with 0.5% CMC-Na to form a 1 mg/ml suspension upon ultrasonic treatment.
Appropriate amounts of drugs were weighed, and dissolved with 0.5 ml DMSO and 0.5 ml of Tween 80. Saline solution was added to the final volume.
Thirty-two (32) SD rats (half female and half male) were evenly designated into 8 groups (4 for each group), and administered by oral gavage or intravenous injection (i.v.) (oral gavage at a dosage of 10 mg/kg or 30 mg/kg, and i.v. at a dosage of 5.0 mg/kg), respectively, at a volume of 10 ml/kg after fasting overnight.
0.1 ml of blood was sampled before, and 0.5, 1, 2, 4, 6, 8, 11, and 24 hours after administration, collected in a heparinized test tube, and centrifuged at 3500 rpm for 10 minutes to separate the plasma, which was stored at −20° C. The animals were allowed access to feed 2 hours after administration.
The content of the test compound in the plasma of rats after administration of the compound by oral gavage was determined by LC/MS/MS.

[3] = Seven-day toxicokinetic evaluation in rats; set-up: species or system SD rats; conditions: rat, in vivo; for AUC(0-inf): AUC0-∞; for MRT inf: MRT0-∞
Experimental: Test Example 8. Seven-Day Toxicokinetic Evaluation of the Compound of Example 11 in Rats
SD rats were used as test animals. The plasma concentration at various times was determined by LC/MS/MS after administration of the compound of Example 11 (SHR147280) by oral gavage for 7 days. The compound toxicity in rodents was preliminarily assessed according to the potential toxicity reaction and severity level of the body.
Twenty-four (24) healthy adult SD rats (half female and half male) were evenly designated into 4 groups (6 for each group). The animals were purchased from Shanghai SLAC Laboratory Animal Corp. Ltd (laboratory animal production Certificate No. SCXK (HU) 2012-0002).
An appropriate amount of sample was accurately weighed, and added with some 0.5% CMC-Na to form an uniform suspension upon ultrasonicator grinding treatment, and then diluted to the final volume. The test sample solutions on day 1 and day 7 were kept for the determination of administration concentration of toxicokinetics.
Repeat oral doses were 80, 240, and 720 mg/kg, and administration concentrations were 8, 24, and 72 mg/ml respectively. The dosing volume was 10 ml/kg once daily for 7 days.
The blood was sampled on day 1 and day 7 after administration with sampling time before, and 1, 2, 4, 8 and 24 hours after oral administration on day 1, as well as before, and 1, 2, 4, 8, 24 and 48 hours after oral administration on day 7. The blood sample was collected in a heparinized test tube, and centrifuged to separate the plasma, which was stored at −20° C. The content of the test compound in the plasma of rats after administration of the compound by oral gavage was determined by LC/MS/MS.

[4] = both sexes, Sprague-Dawley, plasma, iv, i.v. 5 mg/kg
[5] = both sexes, Sprague-Dawley, plasma, oral 10 mg/kg

Sequence of rabbit GnRHr (Q5U7L3 1-328): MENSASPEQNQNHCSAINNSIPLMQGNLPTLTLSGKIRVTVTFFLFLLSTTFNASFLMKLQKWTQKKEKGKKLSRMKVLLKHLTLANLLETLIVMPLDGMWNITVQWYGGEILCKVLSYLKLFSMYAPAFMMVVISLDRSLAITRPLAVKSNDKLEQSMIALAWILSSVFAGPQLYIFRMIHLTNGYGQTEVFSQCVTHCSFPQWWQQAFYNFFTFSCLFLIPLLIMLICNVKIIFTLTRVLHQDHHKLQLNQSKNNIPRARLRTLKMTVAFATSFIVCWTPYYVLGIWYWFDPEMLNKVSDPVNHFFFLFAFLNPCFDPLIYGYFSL

For CONC(=O)Nc1ccc(-n2nc3c(c2CN(C)C)c(=O)n(-c2ccc(OC)nn2)c(=O)n3Cc2c(F)cccc2F)cc1 [Example 11, 1-(4-(7-(2,6-difluorobenzyl)-3-((dimethylamino)methyl)-5-(6-methoxypyridazin-3-yl)-4,6-dioxo-4,5,6,7-tetrahydro-2H-pyrazolo[3,4-d]pyrimidin-2-yl)phenyl)-3-methoxyurea], the IC50 [1] was 0.57 nM, the AUC [2, 4] was 2.67 ± 1.24 µg·h/mL and the half-life [2, 4] was 1.59 ± 0.5 h. For the same compound, the MRT [2, 4] was 2.25 ± 0.06 h, the Vd/F ([2]; both sexes, Sprague-Dawley, plasma, oral 10 mg/kg, read-out: Apparent volume of distribution Vz/F) was 3.29 ± 1.51 L/kg and the AUC [2, 5] was 4.09 ± 1.44 µg·h/mL. The CL/F ([2]; both sexes, Sprague-Dawley, plasma, oral 10 mg/kg, read-out: Clearance rate CL/F) was 44.2 ± 13.4 mL/min/kg, the half-life [2, 5] was 0.84 ± 0.18 h and the Cmax ([2]; both sexes, Sprague-Dawley, plasma, oral 10 mg/kg, read-out: Plasma concentration Cmax) was 2440 ± 873 ng/mL. For the same compound, the MRT [2, 5] was 1.56 ± 0.34 h, the “Apparent volume of distribution Vz/F” value ([2]; i.v. 5 mg/kg) was 4.929 ± 2.39 L/kg and the “Clearance rate CL/F” value ([2]; i.v. 5 mg/kg) was 35.4 ± 12.5 mL/min/kg. It also gave an NOAEL at 7 days ([3]; both sexes, SD, po) of 240 mg/kg, a lethal dose ([3]; both, SD, po, 7 days) of 720 mg/kg and a CLz/F ([3]; female, SD, 80 mg/kg) of 7.71 mL/min/kg. For the same compound, the CLz/F ([3]; female, SD, 240 mg/kg) was 5.82 mL/min/kg, the AUC0-t ([3]; female, SD, po, 80 mg/kg) was 282.074 µg·h/mL and the “AUC0-∞” value ([3]; female, SD, po, 80 mg/kg) was 313.468 µg·h/mL. For the same compound, the Cmax ([3]; female, SD, po, 80 mg/kg) was 19550 ng/mL, the “MRT0-∞” value ([3]; female, SD, po, 80 mg/kg) was 9.23 h and the Vd/F ([3]; female, SD, po, 80 mg/kg) was 2.09 L/kg. The AUC0-t ([3]; female, SD, po, 80 mg/kg, AUC0-t) was 173 µg·h/mL, the AUC(0-inf) ([3]; female, SD, po, 80 mg/kg) was 174 µg·h/mL and the Cmax ([3]; female, SD, po, 80 mg/kg, Cmax) was 17800 ng/mL. The MRT inf ([3]; female, SD, po, 80 mg/kg) was 5.82 h, the AUC0-t ([3]; female, SD, po, 240 mg/kg) was 790.873 µg·h/mL and the “AUC0-∞” value ([3]; female, SD, po, 240 mg/kg) was 840.45 µg·h/mL. The Cmax ([3]; female, SD, po, 240 mg/kg) was 51150 ng/mL, the “MRT0-∞” value ([3]; female, SD, po, 240 mg/kg) was 7.97 h and the Vd/F ([3]; female, SD, po, 240 mg/kg) was 2.87 L/kg. For the same compound, the t1/2 ([3]; female, SD, po, 240 mg/kg) was 4.26 h, the tmax ([3]; female, SD, po, 240 mg/kg) was 6.0 h and the AUC0-t ([3]; female, SD, po, 240 mg/kg, AUC0-t) was 639 µg·h/mL. The AUC(0-inf) ([3]; female, SD, po, 240 mg/kg) was 690 µg·h/mL, the Cmax ([3]; female, SD, po, 240 mg/kg, Cmax) was 41500 ng/mL and the MRT inf ([3]; female, SD, po, 240 mg/kg) was 9.63 h. It also gave a half-life ([3]; female, SD, po, 240 mg/kg, t1/2) of 5.73 h, a tmax ([3]; female, SD, po, 240 mg/kg, tmax) of 8 h and an AUC0-t ([3]; female, SD, po, 720 mg/kg) of 2838.65 µg·h/mL. The Cmax ([3]; female, SD, po, 720 mg/kg) was 138000 ng/mL, the tmax ([3]; female, SD, po, 720 mg/kg) was 24.0 h and the AUC0-t ([3]; female, SD, po, 720 mg/kg, AUC0-t) was 1550 µg·h/mL. For the same compound, the Cmax ([3]; female, SD, po, 720 mg/kg, Cmax) was 69300 ng/mL, the tmax ([3]; female, SD, po, 720 mg/kg, tmax) was 16 h and the “potential toxic target organs” value ([3]; po) was “marrow hematopoietic system, thymus, heart, liver, lung, spleen, adrenal gland, ovary, and digestion system”.
